PubChem BioAssay (NCI)
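Compound exposure: 48 hours, 5 concentrations, 96-well plates. GI50 marks 50% less growth. The concentration for full growth arrest is given as TGI.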

Columns and labels:
Test in all cases: NCI anticancer screen, dose series, 48 h
[1] = test system: UO-31 renal
[2] = test system: HOP-62 NSCLC
[3] = test system: SK-OV-3 ovarian
[4] = test system: NCI-H522 lung
[5] = test system: KM12 colon
[6] = test system: MOLT-4 leukemia
[7] = test system: SK-MEL-2 melanoma
[8] = test system: IGROV1 ovarian
[9] = test system: HOP-18 NSCLC
[10] = test system: DLD-1 colon
[11] = test system: M19-MEL melanoma

Row | SMILES | GI50 [1] [µM] | TGI [1] [µM] | GI50 [2] [µM] | TGI [2] [µM] | GI50 [3] [µM] | TGI [3] [µM] | GI50 [4] [µM] | TGI [4] [µM] | GI50 [5] [µM] | TGI [5] [µM] | GI50 [6] [µM] | TGI [6] [µM] | GI50 [7] [µM] | TGI [7] [µM] | GI50 [8] [µM] | TGI [8] [µM] | TGI [9] [µM] | TGI [10] [µM] | TGI [11] [µM]
1 | CCc1nc(C)cn1C(=O)OCc1nc2nc(Cl)nc(N3CCOCC3)c2[nH]1 | 1.01 | 2.18 | 1.54 | 3.56 | 4.04 | 15.6 | 1.37 | 3.37 | 1.56 | 3.29 | 1.01 | 3.79 | 1.72 | 3.29 | 0.501 | 1.86 |  |  | 
2 | O=C1c2ccccc2C(=O)N1CCCOCc1c[nH]c(=O)[nH]c1=O |  | > 100 |  | > 100 |  | > 100 |  | > 100 |  | > 100 |  | > 100 |  | > 100 |  | > 100 | > 100 | > 100 | > 100
3 | O=S1(=O)c2ccccc2N(c2ccccc2)c2nnnn21 |  | > 100 |  | 45.9 |  | > 100 |  | 38.9 |  | > 100 |  | 55.3 |  | > 100 |  | > 100 |  |  | 
4 | Oc1ccc2c(=S)cc(-c3ccc(Br)cc3)oc2c1O | 1.02 | 6.66 | 1.5 | 6.73 | 2.6 | 8.5 | 1.16 | 3.88 | 3.35 | 25.6 | 2.16 | 6.77 | 2.27 | 6.76 | 2.56 | 9.96 |  |  | 
5 | CC12OC(CC(O)C1O)n1c3ccccc3c3c4c(c5c6ccccc6n2c5c31)C(=O)N(CCN1CCOCC1)C4=O (stereo unspecified) | 1.04 | 5.77 | 1.27 | 4.22 | 1.19 | 4.13 | 0.704 | 3.63 | 1.25 | 6.5 | 0.23 | 4.26 | 2.18 | 10.6 | 0.98 | 8.65 |  |  | 
6 | CC1(C)C(N2CCOCC2)CS1(=O)=O (stereo unspecified) |  | > 10 |  | > 10 |  | > 10 |  | > 10 |  | > 10 |  | > 10 |  | > 10 |  | > 10 |  |  | 
7 | COc1ccc(Cn2cc(COc3cc(/C=C/C(=O)c4cc(OC)c(OC)c(OC)c4)ccc3OC)nn2)cc1 | 4.71 | > 100 | 2.72 | 7.97 | 3.02 | 9.18 | 1.69 | 4.18 | 3.23 | > 100 | 4.67 | > 100 | 8.33 | 42.1 | 4.14 | > 100 |  |  | 
8 | Cc1cccc(C)c1NC(=O)CCC(=O)NC(N)=NC#N |  | > 100 |  | > 100 |  | > 100 |  | > 100 |  | > 100 |  | > 100 |  |  |  | > 100 | > 100 | > 100 | > 100
9 | C#C[C@@]1(O)[C@@H](CO)O[C@@H](n2cc(Br)c3c(Cl)ccnc32)[C@@H]1O | 2.16 | > 100 | 1.31 | > 100 | 3.66 | > 100 | 3.64 | > 100 | 45.2 | > 100 | 0.324 | 3.05 | 35.2 | > 100 | 4.86 | > 100 |  |  | 
10 | CN(C)c1ccc(/C=C(\C#N)c2cc3ccccc3[nH]2)cc1 | 2.01 | > 100 | 1.16 | 4.54 | 2.28 | > 100 | 0.542 | > 100 | 0.495 | > 100 | 0.906 | > 100 | 0.454 | > 100 | 1.6 | > 100 |  |  | 
11 | CC(C)(C)[Si](C)(C)OCC1OC(n2cnc3c(=O)[nH]cnc32)CC1O (stereo unspecified) |  | > 100 |  | > 100 |  | > 100 |  | > 100 |  | > 100 |  | > 100 |  | > 100 |  | > 100 |  |  | 
12 | CN1CCN(CCCNC(=O)c2c3c(n4ccccc24)C(=O)c2ncccc2C3=O)CC1 | 1.81 | 30.7 | 0.966 | 13.5 | 3.46 | 19.6 | 1.01 | 3.86 | 1.28 | 19.5 | 2.13 | 4.87 | 2.67 | 11.4 | 1.28 | 5.06 |  |  | 
13 | COC(=O)C1C(C(=O)O)C2(c3ccccc3)C(=O)C1(c1ccccc1)C(c1ccccc1)=C2c1ccccc1 (stereo unspecified) | 17.9 | 36 | 21.2 | 41.4 | 18.3 | 36.6 | 16 | 34.1 | 16 | 38 | 14.5 | 36 | 16.5 | 34.1 | 17.2 | 33 |  |  | 
14 | O=C(/C=C/c1ccccc1)c1cccc2ccccc12 | 2.68 | 12.6 | 4.25 | 13.5 | 3.11 | 11.3 | 2.75 | 8.41 | 1.89 | 3.77 | 1.43 | 5.68 | 2.97 | 8.3 | 3.4 | 10.9 |  |  | 
15 | Cc1ccc(N)cc1[As]=[As]c1cc(N)ccc1C (stereo unspecified) | 1.57 | 3.03 | 1.72 | 3.19 | 3.59 | 9.43 | 0.122 | 0.268 | 1.95 | 3.81 | 1.94 | 8.82 | 1.97 | 3.54 | 1.88 | 4.18 |  |  | 
16 | Cc1ccc(/C=N/NC(=O)c2ccccc2Oc2ccccc2)o1 | 44.8 | > 100 | 70.9 | > 100 | 77.6 | > 100 | 25.8 | > 100 | 40 | > 100 | 22.8 | 66.5 | 25.5 | > 90.9 | 59.5 | > 100 |  |  | 
